The text below walks through data of patent US7863449B2, “Modulators of muscarinic receptors” (Vertex Pharmaceuticals Incorporated, priority 2004, dated 2011).

SMILES strings stand for the structures. Bounds are passed on as bounds.

Broadly, the Emax is the maximal effect, on the per cent scale that the assay sets.

Assay [1] has as its target T1, M1 muscarinic receptor (Homo sapiens, UniProt P11229).
T1 construct: expressed in transfected cells; host or cells: CHO (M1-CHO)
T1 sequence (P11229 1-460): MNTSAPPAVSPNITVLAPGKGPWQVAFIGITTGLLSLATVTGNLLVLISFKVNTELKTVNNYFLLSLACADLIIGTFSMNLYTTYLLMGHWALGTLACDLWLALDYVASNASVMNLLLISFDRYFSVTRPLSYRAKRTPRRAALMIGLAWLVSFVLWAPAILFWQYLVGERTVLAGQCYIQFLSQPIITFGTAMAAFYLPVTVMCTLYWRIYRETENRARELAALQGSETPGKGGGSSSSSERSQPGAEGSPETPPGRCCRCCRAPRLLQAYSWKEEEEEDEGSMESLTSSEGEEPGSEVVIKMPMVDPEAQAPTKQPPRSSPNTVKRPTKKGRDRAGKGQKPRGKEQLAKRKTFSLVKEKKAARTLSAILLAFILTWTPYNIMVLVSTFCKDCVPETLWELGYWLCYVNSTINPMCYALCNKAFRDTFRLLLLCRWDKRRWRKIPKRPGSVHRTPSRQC
Nature of the assay: Functional mobilization of intracellular calcium (FLIPR), M1-CHO cells. In kind it is cell-based. To be noted: for Emax: 100% efficacy is the maximum response obtained using Carbachol as a control; for M1 Activity: M1-CHO cells, FLIPR calcium mobilization. The gist of the method:
(§1)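 CHO cells expressing M1 or M4, loaded with Fluo-3 AM or Calcium 3 dye with 1 mM probenecid, 0.5% DMSO final. Agonist mode: compound added directly; antagonist mode: 15 min pre-incubation (or co-application) before carbachol at EC80. Fluorescence recorded 60 s on FLIPR.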

In assay [2] the target is T2, M4 muscarinic receptor (Homo sapiens, UniProt P08173).
T2 construct: expressed in transfected cells; host or cells: CHO (M4-CHO)
T2 sequence (P08173 1-479): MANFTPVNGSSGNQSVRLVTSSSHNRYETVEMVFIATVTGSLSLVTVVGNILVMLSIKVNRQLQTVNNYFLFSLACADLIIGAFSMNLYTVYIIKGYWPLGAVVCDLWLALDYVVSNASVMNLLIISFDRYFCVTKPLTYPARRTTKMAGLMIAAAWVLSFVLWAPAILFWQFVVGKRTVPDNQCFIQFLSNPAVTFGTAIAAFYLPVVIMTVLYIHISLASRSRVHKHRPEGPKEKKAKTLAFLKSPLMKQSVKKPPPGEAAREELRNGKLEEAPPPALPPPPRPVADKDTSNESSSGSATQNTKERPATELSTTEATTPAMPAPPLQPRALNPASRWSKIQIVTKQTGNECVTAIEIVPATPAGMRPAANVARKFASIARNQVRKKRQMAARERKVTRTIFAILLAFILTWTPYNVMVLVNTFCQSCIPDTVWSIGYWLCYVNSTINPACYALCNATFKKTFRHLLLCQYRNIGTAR
The assay can be described thus: Functional mobilization of intracellular calcium (FLIPR), M4-CHO cells. It is filed as cell-based. To be noted: for Emax: 100% efficacy is the maximum response obtained using Carbachol as a control; for M4 Activity: M4-CHO cells, FLIPR calcium mobilization. The method in brief: as §1

For `CCOC(=O)N1CCC(N2CCC3(CC2)CN(C(=O)OC(C)C)Cc2ccccc23)CC1` [compound 166], in assay [1], the maximal effect (Emax) lay in the range of 25 to 100% and the “M1 Activity” value is recorded as “+++ (activity was measured to be less than 1.0 μM)”. For the same compound, in assay [2], the Emax was in the range of 25 to 100% and the “M4 Activity” value is given as “+++ (activity was measured to be less than 1.0 μM)”.

Take `CCOC(=O)N1CCC(N2CCC3(CC2)CN(Cc2ccccc2)Cc2ccccc23)CC1` [compound 167]: in assay [1], the maximal effect (Emax) lay in the range of 25 to 100% and the “M1 Activity” value is on record as “++ (activity was measured to be from 1.0 μM to 5.0 μM)”. Also, in assay [2], the maximal response (Emax) is less than 25% and the “M4 Activity” value is “+++ (activity was measured to be less than 1.0 μM)”.

In the case of `CCNC(=O)N1Cc2ccccc2C2(CCN(C3CCN(C(=O)OCC)CC3)CC2)C1` [compound 168], in assay [1], the maximal effect (Emax) is 25 to 100% and the “M1 Activity” value is “+++ (activity was measured to be less than 1.0 μM)”. In assay [2], the maximal response (Emax) was 25 to 100% and the “M4 Activity” value is on record as “+++ (activity was measured to be less than 1.0 μM)”.

Take `CC(=O)N1Cc2ccccc2C2(CCN(C3C4CC5CC(C4)CC3C5)CC2)C1` (stereo not shown) [compound 170]: in assay [1], the maximum response (Emax) lay in the range of 25 to 100% and the “M1 Activity” value was “+++ (activity was measured to be less than 1.0 μM)”. Moreover, in assay [2], the Emax lay within 25 to 100% and the “M4 Activity” value is given as “+++ (activity was measured to be less than 1.0 μM)”.

`CCOC(=O)N1CCC(CN2CCC3(CC2)CN(C(=O)Nc2c(C)noc2C)Cc2ccccc23)CC1` [compound 171]: in assay [1], the maximal response (Emax) is 25 to 100% and the “M1 Activity” value was “+++ (activity was measured to be less than 1.0 μM)”. In assay [2], the Emax was 25 to 100% and the “M4 Activity” value is given as “+++ (activity was measured to be less than 1.0 μM)”.

With `CCOC(=O)N1CCC(N2CCC3(CC2)CN(C2CCCCCC2)Cc2ccccc23)CC1` [compound 172, Ethyl 4-(2-cycloheptyl-2,3-dihydro-1H-spiro[isoquinoline-4,4-piperidine]-1′-yl)piperidine-1-carboxylate], the maximal effect (Emax) in assay [1] and in assay [2] was 25 to 100% throughout.

With `CCOC(=O)N1CCC(N2CCC3(CC2)CN(S(=O)(=O)N(C)C)Cc2ccccc23)CC1` [compound 176], in assay [1], the maximal effect (Emax) fell in the range of 25 to 100% and the “M1 Activity” value is “+++ (activity was measured to be less than 1.0 μM)”. In assay [2], the Emax is 25 to 100% and the “M4 Activity” value is “+++ (activity was measured to be less than 1.0 μM)”.

For the compound `CC(=O)N1Cc2ccccc2C2(CCN(C3CCN(C(=O)OC(C)(C)C)CC3)CC2)C1` [compound 177], in assay [1], the maximal effect (Emax) fell in the range of 25 to 100% and the “M1 Activity” value was “+++ (activity was measured to be less than 1.0 μM)”. Also, in assay [2], the Emax is less than 25% and the “M4 Activity” value is “+ (activity was measured to be greater than 5.0 μM)”.

For `CCOC(=O)N1CCC(N2CCC3(CC2)CN(C(=O)C2(C)CCCCC2)Cc2ccccc23)CC1` [compound 178], in assay [1], the Emax was 25 to 100% and the “M1 Activity” value was “+++ (activity was measured to be less than 1.0 μM)”. Also, in assay [2], the maximal effect (Emax) was less than 25% and the “M4 Activity” value is “+ (activity was measured to be greater than 5.0 μM)”.

Turning to `CCOC(=O)N1C2CCC1CC(N1CCC3(CC1)CN(C(=O)c1snnc1C)Cc1ccccc13)C2` (stereo not shown) [compound 179], in assay [1], the Emax was in the range of 25 to 100% and the “M1 Activity” value was “+++ (activity was measured to be less than 1.0 μM)”. Also, in assay [2], the Emax was in the range of 25 to 100% and the “M4 Activity” value is reported as “+++ (activity was measured to be less than 1.0 μM)”.

Consider `Cc1ccc2c(c1)C1(CCN(C3CCOCC3)CC1)OC2=O` [compound 180], for which, in assay [1], the maximum response (Emax) lay in the range of 25 to 100% and the “M1 Activity” value is “+ (activity was measured to be greater than 5.0 μM)”. In addition, in assay [2], the maximal response (Emax) lay within 25 to 100% and the “M4 Activity” value is “+ (activity was measured to be greater than 5.0 μM)”.

Regarding `CS(=O)(=O)N1Cc2ccccc2C2(CCN(C3CC4CCC(C3)N4C(=O)O[C@H]3CCOC3)CC2)C1` (stereo partly shown) [compound 181], in assay [1], the Emax lay within 25 to 100% and the “M1 Activity” value is reported as “+++ (activity was measured to be less than 1.0 μM)”. For the same compound, in assay [2], the Emax was 25 to 100% and the “M4 Activity” value is listed as “+++ (activity was measured to be less than 1.0 μM)”.

For the compound `CC(=O)N1Cc2ccccc2C2(CCN(CC3CCOCC3)CC2)C1` [compound 182], in assay [1], the maximum response (Emax) is less than 25% and the “M1 Activity” value was “+ (activity was measured to be greater than 5.0 μM)”. Further, in assay [2], the Emax was less than 25% and the “M4 Activity” value is reported as “+ (activity was measured to be greater than 5.0 μM)”.

As to `COCCOC(=O)N1C2CCC1CC(N1CCC3(CC1)CN(C(=O)OC)Cc1ccccc13)C2` (stereo not shown) [compound 183], in assay [1], the Emax lay in the range of 25 to 100% and the “M1 Activity” value is recorded as “+++ (activity was measured to be less than 1.0 μM)”. In assay [2], the Emax was in the range of 25 to 100% and the “M4 Activity” value was “+++ (activity was measured to be less than 1.0 μM)”.

Take `CCCC(=O)N1Cc2ccccc2C2(CCN(CC3CCN(C(=O)OCC)CC3)CC2)C1` [compound 184]: in assay [1], the maximal effect (Emax) lay in the range of 25 to 100% and the “M1 Activity” value is listed as “+++ (activity was measured to be less than 1.0 μM)”. For the same compound, in assay [2], the Emax lay in the range of 25 to 100% and the “M4 Activity” value is on record as “+++ (activity was measured to be less than 1.0 μM)”.

Consider `CCCC(=O)N1Cc2ccccc2C2(CCN(C3CCN(C(=O)OCC)CC3)CC2)C1` [compound 185], for which, in assay [1], the Emax was in the range of 25 to 100% and the “M1 Activity” value was “+++ (activity was measured to be less than 1.0 μM)”. Moreover, in assay [2], the Emax was 25 to 100% and the “M4 Activity” value was “+++ (activity was measured to be less than 1.0 μM)”.

As for `CCOC(=O)N1CCC(N2CCC3(CC2)CN(C(=O)OCC(C)C)Cc2ccccc23)CC1` [compound 186], in assay [1], the maximum response (Emax) fell in the range of 25 to 100% and the “M1 Activity” value is given as “+++ (activity was measured to be less than 1.0 μM)”. In addition, in assay [2], the Emax fell in the range of 25 to 100% and the “M4 Activity” value is given as “+++ (activity was measured to be less than 1.0 μM)”.

As to `CCC(=O)CN1CCC2(CC1)CN(C(C)=O)Cc1ccccc12` [compound 187], in assay [1], the Emax was less than 25% and the “M1 Activity” value was “+ (activity was measured to be greater than 5.0 μM)”. Also, in assay [2], the Emax was less than 25% and the “M4 Activity” value is reported as “+ (activity was measured to be greater than 5.0 μM)”.

On to `CC(=O)Oc1cccc(CN2CCC3(CC2)CN(C(C)=O)Cc2ccccc23)c1` [compound 188], for which, in assay [1], the Emax is less than 25% and the “M1 Activity” value was “+ (activity was measured to be greater than 5.0 μM)”. Also, in assay [2], the Emax is less than 25% and the “M4 Activity” value is “+ (activity was measured to be greater than 5.0 μM)”.

As for `CCCOC(=O)N1C2CCC1CC(N1CCC3(CC1)CN(C(=O)OC1CCC1)Cc1ccccc13)C2` (stereo not shown) [compound 189], in assay [1], the Emax is 25 to 100% and the “M1 Activity” value is “+++ (activity was measured to be less than 1.0 μM)”. For the same compound, in assay [2], the maximal response (Emax) fell in the range of 25 to 100% and the “M4 Activity” value was “+++ (activity was measured to be less than 1.0 μM)”.

`CCOC(=O)N1C2CCC1CC(N1CCC3(CC1)CN(C(=O)C(O)(CC)CC)Cc1ccccc13)C2` (stereo not shown) [compound 190]: in assay [1], the Emax was 25 to 100% and the “M1 Activity” value was “+++ (activity was measured to be less than 1.0 μM)”. In assay [2], the Emax was in the range of 25 to 100% and the “M4 Activity” value was “+++ (activity was measured to be less than 1.0 μM)”.

As for `CC(=O)N1Cc2ccccc2C2(CCN(Cc3cc4ccccc4s3)CC2)C1` [compound 191], in assay [1], the maximal effect (Emax) was less than 25% and the “M1 Activity” value is given as “+ (activity was measured to be greater than 5.0 μM)”. In assay [2], the maximal response (Emax) is less than 25% and the “M4 Activity” value is listed as “+ (activity was measured to be greater than 5.0 μM)”.

With `COc1cccc(OC)c1CN1CCC2(CC1)CN(C(C)=O)Cc1ccccc12` [compound 192], in assay [1], the maximal response (Emax) lay within 25 to 100% and the “M1 Activity” value is given as “+ (activity was measured to be greater than 5.0 μM)”. In assay [2], the Emax was 25 to 100% and the “M4 Activity” value is “+ (activity was measured to be greater than 5.0 μM)”.

For the compound `CCOC(=O)N1C2CCC1CC(N1CCC3(CC1)CN(C(=O)C1CCCCC1)Cc1ccccc13)C2` (stereo not shown) [compound 193], in assay [1], the Emax lay within 25 to 100% and the “M1 Activity” value was “+++ (activity was measured to be less than 1.0 μM)”. Further, in assay [2], the Emax was less than 25% and the “M4 Activity” value was “+++ (activity was measured to be less than 1.0 μM)”.
